Assay results as given in ChEMBL document CHEMBL5338773, “First-in-Class Selective Inhibitors of the Lysine Acetyltransferase KAT8” (J Med Chem, 2023).
Active and inactive are the calls of the source. No cut-off for these calls is given here.

Tests used:
[1] = organism: Homo sapiens; assay: Inhibition of human recombinant KDAC1 using Boc-Lys-(Ac)-AMC as substrate at 50 to 100 uM incubated for 45 mins by fluorescence microplate reader analysis; conditions: dose 50-100 µM
[2] = molecular target: Histone deacetylase 2 (Homo sapiens) (UniProt Q92769); assay: Inhibition of human recombinant KDAC2 using Boc-Lys-(Ac)-AMC as substrate at 50 to 100 uM incubated for 45 mins by fluorescence microplate reader analysis; conditions: dose 50-100 µM
[3] = molecular target: Histone deacetylase 3 (Homo sapiens) (UniProt O15379); assay: Inhibition of human recombinant KDAC3 using Boc-Lys-(Ac)-AMC as substrate at 50 to 100 uM incubated for 45 mins by fluorescence microplate reader analysis; conditions: dose 50-100 µM
[4] = organism: Homo sapiens; assay: Inhibition of human recombinant KDAC8 using Boc-Lys-(Ac)-AMC as substrate at 50 to 100 uM incubated for 45 mins by fluorescence microplate reader analysis; conditions: dose 50-100 µM
[5] = molecular target: T1, Histone acetyltransferase KAT8 (Homo sapiens) (UniProt Q9H7Z6); assay: Time dependent inhibition of N-terminal 6His tagged KAT8 (173 to 458 residues) (unknown origin) expressed in Escherichia coli BL21(DE3) using biotinylated histone H4 peptide and [3H]Acetyl-CoA as substrates at 200 uM preincubated for 5 to 120 mins followed by substrate addition and measured after 4 hrs by MicroBeta microplate counter analysis; conditions: time 245-360 min
T1 sequence (whole entry): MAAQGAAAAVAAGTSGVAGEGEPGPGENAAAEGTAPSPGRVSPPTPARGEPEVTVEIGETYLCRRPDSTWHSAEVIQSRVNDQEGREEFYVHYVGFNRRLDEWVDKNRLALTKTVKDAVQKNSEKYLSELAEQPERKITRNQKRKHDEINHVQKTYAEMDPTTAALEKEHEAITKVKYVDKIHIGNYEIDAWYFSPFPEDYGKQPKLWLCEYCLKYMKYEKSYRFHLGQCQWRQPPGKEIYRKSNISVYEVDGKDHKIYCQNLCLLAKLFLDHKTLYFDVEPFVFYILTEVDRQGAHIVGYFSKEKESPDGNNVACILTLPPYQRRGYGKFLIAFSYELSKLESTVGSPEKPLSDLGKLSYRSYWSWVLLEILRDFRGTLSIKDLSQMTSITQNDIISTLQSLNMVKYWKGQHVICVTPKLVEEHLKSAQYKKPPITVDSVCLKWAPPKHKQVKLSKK

[6] = molecular target: T1, Histone acetyltransferase KAT8 (Homo sapiens); assay: Binding affinity to KAT8 in human HT-29 cells assessed as stabilization of enzyme against thermal induced aggregation at 59 degreeC at 100 nM incubated for 4 hrs by Western blot analysis; type: cell-based
[7] = molecular target: T1, Histone acetyltransferase KAT8 (Homo sapiens); assay: Inhibition of human KAT8 in human HT-29 cells assessed as decrease in histone H4K16 acetylation level at 10 to 50 uM incubated for 24 hrs by Western blot analysis; type: cell-based; conditions: dose 10-50 µM
[8] = molecular target: T1, Histone acetyltransferase KAT8 (Homo sapiens); assay: Inhibition of human KAT8 in human HT-29 cells assessed as change in KAT8 expression level at 10 to 50 uM incubated for 24 hrs by Western blot analysis; type: cell-based; conditions: dose 10-50 µM
[9] = molecular target: T1, Histone acetyltransferase KAT8 (Homo sapiens); assay: Inhibition of human KAT8 in human HT-29 cells assessed as change in histone H3K27 acetylation level by measuring fluorescence intensity in nucleus at 50 uM incubated for 24 hrs by DAPI staining based immunofluorescence analysis; type: cell-based
[10] = system: HCT-116; assay: Antiproliferative activity against human HCT-116 cells assessed as cell proliferation inhibition at 10 to 100 uM incubated for 72 hrs by MTT assay; type: functional, cell-based; conditions: dose 10-100 µM
[11] = system: U-937; assay: Antiproliferative activity against human U-937 cells assessed as cell proliferation inhibition at 10 to 100 uM incubated for 72 hrs by MTT assay; type: functional, cell-based; conditions: dose 10-100 µM
[12] = system: HeLa; assay: Antiproliferative activity against human HeLa cells assessed as cell proliferation inhibition at 10 to 100 uM incubated for 72 hrs by MTT assay; type: functional, cell-based; conditions: dose 10-100 µM
[13] = system: NCI-H460; assay: Antiproliferative activity against human NCI-H460 cells assessed as cell proliferation inhibition at 10 to 100 uM incubated for 72 hrs by MTT assay; type: functional, cell-based; conditions: dose 10-100 µM
[14] = system: MCF7; assay: Antiproliferative activity against human MCF7 cells assessed as cell proliferation inhibition at 10 to 100 uM incubated for 72 hrs by MTT assay; type: functional, cell-based; conditions: dose 10-100 µM
[15] = system: U-251; assay: Antiproliferative activity against human U-251 cells assessed as cell proliferation inhibition at 10 to 100 uM incubated for 72 hrs by MTT assay; type: functional, cell-based; conditions: dose 10-100 µM
[16] = system: AHH-1; assay: Cytotoxicity against human AHH-1 cells assessed as inhibition of cell viability at 25 to 200 uM incubated for 72 hrs by MTT assay; type: toxicity, cell-based; conditions: ahh-1, 72 h, dose 25-200 µM
[17] = Cytotoxicity against human Intestinal epithelial cells assessed as inhibition of cell viability at 25 to 200 uM incubated for 72 hrs by MTT assay; type: toxicity, cell-based; conditions: dose 25-200 µM
[18] = system: HCT-116; assay: Induction of cell cycle arrest in human HCT-116 cells assessed as increase in number of cells at sub-G1 phase with DNA hypodiploid at 50 uM incubated for 72 hrs by PI-staining based flow cytometry (Rvb=2%); type: functional
[19] = system: HeLa; assay: Induction of cell cycle arrest in human HeLa cells assessed as increase in number of cells at sub-G1 phase with DNA hypodiploid at 50 uM incubated for 72 hrs by PI-staining based flow cytometry (Rvb=2%); type: functional
[20] = system: HT-29; assay: Effect on cell cycle progression in human HT-29 cells assessed as changes in cell cycle stages at 50 to 100 uM incubated for 72 hrs by PI-staining based flow cytometry; type: functional; conditions: dose 50-100 µM
[21] = system: HCT-116; assay: Effect on cell cycle progression in human HCT-116 cells assessed as changes in cell cycle stages at 50 to 100 uM incubated for 72 hrs by PI-staining based flow cytometry; type: functional; conditions: dose 50-100 µM
[22] = system: HeLa; assay: Effect on cell cycle progression in human HeLa cells assessed as changes in cell cycle stages at 50 to 100 uM incubated for 72 hrs by PI-staining based flow cytometry; type: functional; conditions: dose 50-100 µM
[23] = system: NCI-H1299; assay: Induction of autophagy in human NCI-H1299 cells stably expressing EGFP-LC3 assessed as increase in autophagosome formation by measuring fluorescence spots at 10 to 100 uM incubated for 48 hrs by Fluorescence microscopy; type: functional, cell-based; conditions: dose 10-100 µM
[24] = system: NCI-H1299; assay: Induction of autophagy in human NCI-H1299 cells stably expressing EGFP-LC3 assessed as increase in EGFP-LC3 puncta formation at 10 to 100 uM incubated for 48 hrs by Fluorescence microscopy; type: functional, cell-based; conditions: dose 10-100 µM
[25] = system: HCT-116; assay: Induction of apoptosis in human HCT-116 cells assessed as increase in apoptotic cells at 100 uM incubated for 72 hrs in presence of chloroquine by Annexin V-FITC staining based flow cytometry; type: functional, cell-based
[26] = Thiol reactivity of compound at pH 7.5 buffer at 0.5 mM and measured upto 24 hrs in presence of DTT and BME by HPLC analysis; type: physicochemical; conditions: pH 7.5, 24 h, 500 µM
[27] = GSH reactivity of compound at pH 7.5 buffer at 0.5 mM and measured upto 24 hrs in presence of DTT and BME by HPLC analysis; type: physicochemical; conditions: pH 7.5, 24 h, 500 µM

Histone deacetylase 2 (Homo sapiens), sequence (Q92769 whole entry): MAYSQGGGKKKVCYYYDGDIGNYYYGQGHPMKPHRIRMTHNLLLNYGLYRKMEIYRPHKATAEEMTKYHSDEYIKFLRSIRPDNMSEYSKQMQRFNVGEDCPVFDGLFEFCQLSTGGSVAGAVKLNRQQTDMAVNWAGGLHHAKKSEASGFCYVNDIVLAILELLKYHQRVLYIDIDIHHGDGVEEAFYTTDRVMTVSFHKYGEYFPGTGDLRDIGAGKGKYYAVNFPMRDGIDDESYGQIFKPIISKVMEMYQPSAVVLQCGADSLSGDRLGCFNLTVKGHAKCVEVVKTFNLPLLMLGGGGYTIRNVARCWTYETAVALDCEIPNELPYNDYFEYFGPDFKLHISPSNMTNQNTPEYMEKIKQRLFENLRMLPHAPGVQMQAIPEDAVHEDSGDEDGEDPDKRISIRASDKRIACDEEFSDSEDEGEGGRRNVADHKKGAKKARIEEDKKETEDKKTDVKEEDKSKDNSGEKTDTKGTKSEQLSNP
Histone deacetylase 3 (Homo sapiens), sequence (O15379 whole entry): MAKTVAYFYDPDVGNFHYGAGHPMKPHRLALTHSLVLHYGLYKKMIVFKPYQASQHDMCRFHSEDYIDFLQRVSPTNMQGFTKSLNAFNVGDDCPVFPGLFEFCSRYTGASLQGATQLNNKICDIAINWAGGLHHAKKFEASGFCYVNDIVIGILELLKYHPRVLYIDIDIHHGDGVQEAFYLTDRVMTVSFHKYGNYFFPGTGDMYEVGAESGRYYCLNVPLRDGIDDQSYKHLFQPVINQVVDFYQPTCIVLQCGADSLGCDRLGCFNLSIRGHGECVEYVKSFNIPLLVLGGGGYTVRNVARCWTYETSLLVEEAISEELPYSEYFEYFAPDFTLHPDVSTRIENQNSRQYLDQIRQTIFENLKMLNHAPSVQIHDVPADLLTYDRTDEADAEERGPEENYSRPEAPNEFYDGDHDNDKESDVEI

Structure (SMILES) | inhibition [1] | inhibition [2] | inhibition [3] | inhibition [4] | inhibition [5] | Activity [6] | inhibition [7] | inhibition [8] | inhibition [9] | Activity [10] | Activity [11] | Activity [12] | Activity [13] | Activity [14] | Activity [15] | Activity [16] | Activity [17] | Activity [18] | Activity [19] | Activity [20] | other results
CC1=NN(c2ccc(C(=O)O)cc2)C(=O)/C1=C\c1ccc[nH]1 | inactive | inactive | inactive | inactive | inactive | Active | Active | inactive | inactive | Dose-Dependent Effect | Dose-Dependent Effect | Active | Active | inactive | inactive | Non-Toxic | Non-Toxic | 3% | 2% | inactive | Activity [21]: inactive; Activity [22]: inactive; Activity [23]: Active; Activity [24]: Active; Activity [25]: Active; Drug metabolism [26]: Not Active; Drug metabolism [27]: Not Active
O=C(O)c1ccc(N2N=C(c3ccccc3)/C(=C/c3ccc[nH]3)C2=O)cc1 | inactive | inactive | inactive | inactive | inactive | Active | Active | inactive | inactive | Dose-Dependent Effect | Dose-Dependent Effect | Active | inactive | inactive | inactive | Non-Toxic | Non-Toxic | 7% | 2% | inactive | Activity [21]: inactive; Activity [22]: inactive; Activity [23]: Active; Activity [24]: Active; Activity [25]: Active; Drug metabolism [26]: Not Active; Drug metabolism [27]: Not Active
